Measurements: patent publication US8574831B2, “Mutational profiles in HIV-1 reverse transcriptase correlated with phenotypic drug resistance” (Virco N.V., priority 2000, dated 2013)

Test system: HIV with mutations in the HIV protease sequence
Assay: Phenotypic fold resistance to protease inhibitors, protease mutations 84A/84L/84C/54M/54L/54V in a background (Examples 8-13)
Format: cell-based, HIV-1
Protocol: As is the case with the genotyping assays, the recombinant virus assay starts with the amplification of viral target sequences by means of PCR. The amplicons are incorporated into a proviral laboratory clone with sequences homologous to those present in the amplicon deleted. This generates a stock of chimeric viruses. The viruses are tested for their ability to grow in the presence of different concentrations of drugs. Results are obtained by calculating IC50 values for each inhibitor and by reporting the results as IC50 values, expressed in μM concentrations, or by computing the ratio of the IC50 values found for the chimeric virus to the IC50 values found for a wild type susceptible laboratory virus tested in parallel. In the latter case, resistance is expressed as “fold-resistance” compared to a wild-type susceptible HIV-1 strain. In order to meet the need for high-volume testing and a short turn-around time for an individual test, the latest generation of phenotyping assays has undergone further modifications. The use of reporter gene systems for susceptibility testing allows the implementation of laboratory automation and standardization. See Pauwels, et al., J. Virol. Methods 20, 309-321 (1998); Paulous, S., et al., International Workshop on HIV Drug Resistance, Treatment Strategies and Eradication, St. Petersburg, Fla., USA. Abstr. 46 (1997); and Deeks, S. G., et al., 2nd International Workshop on HIV Drug Resistance and Treatment Strategies, Lake Maggiore, Italy. Abstr. 53 (1998).
The ANTIVIROGRAM® assay (Virco) (WO 97/27480) is based on homologous recombination of patient derived HIV-1 gag/PR/RT sequences into a proviral HIV-1 clone correspondingly deleted for the gag/PR/RT sequences. See Pauwels, et al., J. Virol. Methods 20, 309-321 (1998). A similar assay (Phenosense ViroLogic) is based on enzymatic ligation of patient-derived PR/RT sequences into a correspondingly deleted proviral vector carrying an indicator gene, luciferase, inserted in the deleted HIV-1 envelope gene. See Deeks, S. G., et al., 2nd International Workshop on HIV Drug Resistance and Treatment Strategies, Lake Maggiore, Italy. Abstr. 53 (1998). Hertogs et al. Antimicrob. Agents Chemother. 44(3) 568-573 (2000) the disclosures of which are herein incorporated by reference.
The methods of monitoring HIV-1 drug resistance, may also be used in combination with phenotypic drug resistance testing of viral isolates. For example, in one embodiment, a phenotypic test is utilized that is based upon the construction of chimeric HIV-1 strains composed of the protease (PR) and reverse transcriptase (RT) gene sequences which are isolated and amplified from the patient viral RNA. These strains may subsequently be recombined inside CD4+ T cells with a standard laboratory isogenic (HXB2) HIV-1 DNA construct from which the PR/RT gene sequences were deleted. The recombinant strains may then be grown in the presence of the above-mentioned antiviral drugs and the susceptibility of the viral isolates may be expressed as fold-change value of the IC50 of the drug on the patient isolates over the IC50 of the drug on a wild-type laboratory reference strain.

Cc1c(O)cccc1C(=O)N[C@@H](CSc1ccccc1)[C@H](O)CN1C[C@H]2CCCC[C@H]2C[C@H]1C(=O)NC(C)(C)C [Nelfinavir, nelfinavir]
Fold change in IC50 (Table 12, V055199, genotype 10I + 33F + 54M + 90M): 11.7 fold | Fold change in IC50 (Table 13, V19263, genotype 77I): 0.9 fold | Fold change in IC50 (Table 13, V20160, genotype WT): 0.7 fold | Fold change in IC50 (Table 13, V021667, genotype 10I): 1.0 fold | Fold change in IC50 (Table 13, V030496, genotype 10I + 77I): 0.7 fold | Fold change in IC50 (Table 13, V048868, genotype 10I + 54L + 71V + 77I + 90M): 15.6 fold | Fold change in IC50 (Table 13, V048874, genotype 10I + 33F + 54L + 71V + 77I + 90M): 14.5 fold | Fold change in IC50 (Table 13, V048875, genotype 10I + 33F + 54L + 71V + 77I + 90M): 12.5 fold | Fold change in IC50 (Table 13, V048877, genotype 10I + 33F + 77I + 90M): 9.4 fold | Fold change in IC50 (Table 13, V048880, genotype 10I + 33F + 77I + 90M): 4.9 fold | Fold change in IC50 (Table 13, V052940, genotype 71V): 0.6 fold | Fold change in IC50 (Table 13, V052942, genotype 10I + 71V): 0.9 fold | Fold change in IC50 (Table 13, V052943, genotype 10I + 90M): 2.2 fold | Fold change in IC50 (Table 13, V052944, genotype 10I + 90M): 1.4 fold | Fold change in IC50 (Table 13, V052945, genotype 77I + 90M): 3.0 fold | Fold change in IC50 (Table 13, V052946, genotype 71V + 90M): 3.0 fold | Fold change in IC50 (Table 13, V052947, genotype 10I + 77I + 90M): 8.2 fold | Fold change in IC50 (Table 13, V052948, genotype 10I + 71V + 90M): 9.0 fold | Fold change in IC50 (Table 13, V052949, genotype 10I + 71V + 77I + 90M): 8.6 fold | Fold change in IC50 (Table 13, V052950, genotype 33F): 1.0 fold | Fold change in IC50 (Table 13, V052951, genotype 33F + 77I): 5.2 fold | Fold change in IC50 (Table 13, V052953, genotype 10I + 33F + 77I): 0.9 fold | Fold change in IC50 (Table 13, V052954, genotype 33F + 77I + 90M): 5.9 fold | Fold change in IC50 (Table 13, V052955, genotype 33F + 71V + 90M): 36.6 fold | Fold change in IC50 (Table 13, V052968, genotype 10L/I + 33F/L + 54L + 77I): 3.5 fold | Fold change in IC50 (Table 13, V052969, genotype 10I + 33F + 54L + 90M): 3.4 fold | Fold change in IC50 (Table 13, V052970, genotype 54L): 1.6 fold | Fold change in IC50 (Table 13, V052971, genotype 10I + 54L): 1.0 fold | Fold change in IC50 (Table 13, V052972, genotype 54L + 77I): 3.0 fold | Fold change in IC50 (Table 13, V052973, genotype 10I + 54L + 77I): 2.8 fold | Fold change in IC50 (Table 13, V052974, genotype 10I + 54L + 90M): 2.6 fold | Fold change in IC50 (Table 13, V052975, genotype 10I + 54L + 71V + 90M): 41.3 fold | Fold change in IC50 (Table 13, V052976, genotype 10I + 54L + 71V + 77I + 90M): 8.9 fold | Fold change in IC50 (Table 13, V053832, genotype 10I + 33F): 1.6 fold | Fold change in IC50 (Table 13, V053854, genotype 54L + 71V): 5.9 fold | Fold change in IC50 (Virco ID 214846, genotype 10I + 33F + 54V + 71V + 77I + 90M, vs mean IC50 of wild type laboratory HIV strain): 43.5 fold | Fold change in IC50 (Virco ID V021667, genotype 10I, vs mean IC50 of wild type laboratory HIV strain): 1.0 fold | Fold change in IC50 (Virco ID V030496, genotype 10I + 77I, vs mean IC50 of wild type laboratory HIV strain): 0.7 fold | Fold change in IC50 (Virco ID V048876, genotype 33F + 54V + 77I + 90M, vs mean IC50 of wild type laboratory HIV strain): 1.6 fold | Fold change in IC50 (Virco ID V048877, genotype 10I + 33F + 77I + 90M, vs mean IC50 of wild type laboratory HIV strain): 9.4 fold | Fold change in IC50 (Virco ID V048880, genotype 10I + 33F + 77I + 90M, vs mean IC50 of wild type laboratory HIV strain): 4.9 fold | Fold change in IC50 (Virco ID V052940, genotype 71V, vs mean IC50 of wild type laboratory HIV strain): 0.6 fold | Fold change in IC50 (Virco ID V052942, genotype 10I + 71V, vs mean IC50 of wild type laboratory HIV strain): 0.9 fold | Fold change in IC50 (Virco ID V052943, genotype 10I + 90M, vs mean IC50 of wild type laboratory HIV strain): 2.2 fold | Fold change in IC50 (Virco ID V052944, genotype 10I + 90M, vs mean IC50 of wild type laboratory HIV strain): 1.4 fold | Fold change in IC50 (Virco ID V052946, genotype 71V + 90M, vs mean IC50 of wild type laboratory HIV strain): 3.0 fold | Fold change in IC50 (Virco ID V052947, genotype 10I + 77I + 90M, vs mean IC50 of wild type laboratory HIV strain): 8.2 fold | Fold change in IC50 (Virco ID V052948, genotype 10I + 71V + 90M, vs mean IC50 of wild type laboratory HIV strain): 9.0 fold | Fold change in IC50 (Virco ID V052949, genotype 10I + 71V + 77I + 90M, vs mean IC50 of wild type laboratory HIV strain): 8.6 fold | Fold change in IC50 (Virco ID V052950, genotype 33F, vs mean IC50 of wild type laboratory HIV strain): 1.0 fold | Fold change in IC50 (Virco ID V052951, genotype 33F + 77I, vs mean IC50 of wild type laboratory HIV strain): 5.2 fold | Fold change in IC50 (Virco ID V052953, genotype 10I + 33F + 77I, vs mean IC50 of wild type laboratory HIV strain): 0.9 fold | Fold change in IC50 (Virco ID V052954, genotype 33F + 77I + 90M, vs mean IC50 of wild type laboratory HIV strain): 5.9 fold | Fold change in IC50 (Virco ID V052955, genotype 33F + 71V + 90M, vs mean IC50 of wild type laboratory HIV strain): 36.6 fold | Fold change in IC50 (Virco ID V052957, genotype 10I + 33F + 54V + 90M, vs mean IC50 of wild type laboratory HIV strain): 6.9 fold | Fold change in IC50 (Virco ID V052958, genotype 10I + 33F + 54V + 77I + 90M, vs mean IC50 of wild type laboratory HIV strain): 4.8 fold | Fold change in IC50 (Virco ID V052959, genotype 10I + 33F + 54V + 77I + 90M, vs mean IC50 of wild type laboratory HIV strain): 7.5 fold | Fold change in IC50 (Virco ID V052960, genotype 10I + 33F + 54V + 71V + 90M, vs mean IC50 of wild type laboratory HIV strain): 40.7 fold | Fold change in IC50 (Virco ID V052961, genotype 54V, vs mean IC50 of wild type laboratory HIV strain): 1.0 fold | Fold change in IC50 (Virco ID V052962, genotype 10I + 54V, vs mean IC50 of wild type laboratory HIV strain): 0.6 fold | Fold change in IC50 (Virco ID V052963, genotype 54V + 77I + 90M, vs mean IC50 of wild type laboratory HIV strain): 3.2 fold | Fold change in IC50 (Virco ID V052964, genotype 54V + 71V + 90M, vs mean IC50 of wild type laboratory HIV strain): 3.3 fold | Fold change in IC50 (Virco ID V052965, genotype 10I + 54V + 77I + 90M, vs mean IC50 of wild type laboratory HIV strain): 15.1 fold | Fold change in IC50 (Virco ID V052966, genotype 10I + 54V + 71V + 90M, vs mean IC50 of wild type laboratory HIV strain): 55.4 fold | Fold change in IC50 (Virco ID V052967, genotype 10I + 54V + 71V + 77I + 90M, vs mean IC50 of wild type laboratory HIV strain): 0.8 fold | Fold change in IC50 (Virco ID V053358, genotype 33F + 54V + 77I + 90M, vs mean IC50 of wild type laboratory HIV strain): 2.1 fold | Fold change in IC50 (Virco ID V053831, genotype 33F + 54V, vs mean IC50 of wild type laboratory HIV strain): 5.9 fold | Fold change in IC50 (Virco ID V053832, genotype 10I + 33F, vs mean IC50 of wild type laboratory HIV strain): 1.6 fold
